Drawing on paper PMC3514016 (The international journal of biochemistry & cell biology, 2009), this text covers Km for 2 molecules.

Where a SMILES comes first, the peptide text is derived from it. The star is where a group is joined. AMC = Cc1cc(=O)oc2cc(N*)ccc12; Cbz = O=C(OCc1ccccc1)*

The test deals with Human CatB (human wild-type cathepsin B) (Homo sapiens, UniProt P07858, S194A). As to conditions: read-out: Human CatB / Km; 37 °C; pH not stated for the Km assay.

As to `Cc1cc(=O)oc2cc(NC(=O)[C@H](CCCNC(=N)N)NC(=O)[C@H](CCCNC(=N)N)NC(=O)OCc3ccccc3)ccc12` [Z-Arg-Arg-AMC] (Cbz-Arg-Arg-{AMC}), the Km worked out at 100 µM.
As for `Cc1cc(=O)oc2cc(NC(=O)[C@H](CCCNC(=N)N)NC(=O)[C@H](Cc3ccccc3)NC(=O)OCc3ccccc3)ccc12` [Z-Phe-Arg-AMC] (Cbz-Phe-Arg-{AMC}), the figure is 47 µM.
